# Laboratory results as given in patent publication US20110045101A1, “FUNGICIDAL SUBSTITUTED AZOLES” (E.I. Du Pont De Nemours and Company, priority 2009, published 2011).
# Marks after values point to notes of the source that are not given here.
# Key:
# Assay type in all cases: in vivo
# Details in all cases: 100 = 100% disease control
# Botrytis cinerea = assay: Test C: tomato Botrytis on tomato seedlings, sprayed the day before inoculation, visual disease rating
# Method in brief: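 Compounds were dissolved in acetone (3% of final volume), then suspended in 50/50 acetone/purified water containing 250 ppm polyhydric alcohol ester surfactant. Suspensions were sprayed to run-off on tomato seedlings at 200 ppm, equivalent to 500 g/ha, or at 40 ppm where marked.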
# Alternaria solani = assay: Test D: tomato early blight, sprayed the day before inoculation, visual disease rating
# Method in brief: (§1)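 Compounds were dissolved in acetone (3% of final volume), then suspended in 50/50 acetone/purified water with 250 ppm Trem® 014 surfactant. Suspensions at 200 ppm (some at 40 ppm) were sprayed to run-off, 200 ppm being equivalent to 500 g/ha.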
# Septoria nodorum = assay: Test F: wheat glume blotch on wheat seedlings, sprayed the day before inoculation, visual disease rating
# Method in brief: as §1
# Septoria tritici = assay: Test G: wheat leaf blotch on wheat seedlings, sprayed the day before inoculation, visual disease rating
# Method in brief: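 Wheat seedlings were sprayed to run-off with test suspension (acetone/water plus surfactant), generally 200 ppm (≈500 g/ha), or 40 ppm where marked. Septoria tritici spores were inoculated the next day; plants were held 48 h at 24°C in saturated atmosphere, then 19 days at 20°C before visual disease rating.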
# [1] = system: Puccinia recondita f. sp. tritici; assay: Test I: wheat leaf rust on wheat seedlings, sprayed the day before inoculation, visual disease rating
# Method in brief: as §1
# [2] = system: Erysiphe graminis f. sp. tritici; assay: Test J: wheat powdery mildew on wheat seedlings, sprayed the day before inoculation, visual disease rating
# Method in brief: as §1
# [3] = 200 ppm, 0 = no control relative to controls
# [4] = 40 ppm (marked *), 0 = no control
SMILES,Test C disease control rating (Botrytis cinerea; [3]) [%],Test D disease control rating (Alternaria solani; [3]) [%],Test F disease control rating (Septoria nodorum; [3]) [%],Test G disease control rating (Septoria tritici; [3]) [%],"Test I disease control rating [1, 3] [%]","Test J disease control rating [2, 3] [%]",other results
COc1cc(F)c(-c2c(Br)nc(C)n2-c2ccc(Cl)cc2)c(F)c1C [compound 59],,,,,,,Test C disease control rating (Botrytis cinerea; 40 ppm (marked *)): 93* %; Test D disease control rating (Alternaria solani; 40 ppm (marked *)): 100* %; Test F disease control rating (Septoria nodorum; 40 ppm (marked *)): 82* %; Test G disease control rating (Septoria tritici; 40 ppm (marked *)): 97* %; Test I disease control rating ([1]; 40 ppm (marked *)): 86* %; Test J disease control rating ([2]; 40 ppm (marked *)): 97* %
COc1cc(F)c(-c2c(Cl)nc(C)n2-c2ccc(C)cc2)c(F)c1 [compound 159],,,,,,,"Test C disease control rating (Botrytis cinerea; 200 ppm, 0 = no control): 99%; Test D disease control rating (Alternaria solani; 200 ppm, 0 = no control): 100%; Test F disease control rating (Septoria nodorum; 200 ppm, 0 = no control): 99%; Test G disease control rating (Septoria tritici; 200 ppm, 0 = no control): 97%; Test I disease control rating ([1]; 200 ppm, 0 = no control): 100%; Test J disease control rating ([2]; 200 ppm, 0 = no control): 100%"
Fc1cccc(F)c1-c1c(Cl)nc(Br)n1Cc1cccc(Cl)c1 [compound 101],88,0,0,97,100,99,
Fc1ccc(-n2c(Cl)nc(Cl)c2-c2c(F)ccc(F)c2F)cc1 [compound 129],99,100,0,89,74,95,
Cc1c(CCl)sc(-c2cnc(Cl)n2-c2ccc(Cl)cc2)c1Cl [compound 451],0,0,0,82,19,0,
COc1cc(F)c(-c2c(C)nc(Cl)n2-c2ccc(Cl)nc2)c(F)c1 [compound 263],,,,,,,"Test C disease control rating (Botrytis cinerea; 200 ppm, 0 = no control): 99%; Test D disease control rating (Alternaria solani; 200 ppm, 0 = no control): 100%; Test F disease control rating (Septoria nodorum; 200 ppm, 0 = no control): 100%; Test G disease control rating (Septoria tritici; 200 ppm, 0 = no control): 95%; Test I disease control rating ([1]; 200 ppm, 0 = no control): 100%; Test J disease control rating ([2]; 200 ppm, 0 = no control): 100%"
Cc1nc(Cl)c(-c2c(F)cccc2F)n1-c1ccc(C(F)(F)F)cc1 [compound 92],76,100,0,98,89,100,
COc1cc(F)c(-c2c(Cl)nc(Br)n2-c2ccc(F)cc2)c(F)c1 [compound 144],100,100,100,100,100,100,
Cc1nc(C)n(-c2ccc(Cl)cc2)c1-c1c(F)ccc(F)c1Cl [compound 388],99,100,60,99,100,100,
Fc1ccc(F)c(-c2c(Cl)nc(Br)n2-c2ccc(Cl)cc2)c1F [compound 50],98,100,100,92,100,100,
Fc1ccc(F)c(-c2c(Cl)ncn2-c2ccc(Cl)cc2)c1Cl [compound 74],98,96,31,98,99,99,
Fc1cccc(F)c1-c1c(Cl)nc(Br)n1-c1cccc(Cl)c1 [compound 221],,,,,,,"Test C disease control rating (Botrytis cinerea; 200 ppm, 0 = no control): 99%; Test D disease control rating (Alternaria solani; 200 ppm, 0 = no control): 99%; Test F disease control rating (Septoria nodorum; 200 ppm, 0 = no control): 0%; Test G disease control rating (Septoria tritici; 200 ppm, 0 = no control): 95%; Test I disease control rating ([1]; 200 ppm, 0 = no control): 97%; Test J disease control rating ([2]; 200 ppm, 0 = no control): 98%"
Fc1cc(F)c(-n2cnc(Br)c2-c2ccc(Cl)cc2)c(F)c1 [compound 212],,,,,,,"Test C disease control rating (Botrytis cinerea; [4]): 40* %; Test D disease control rating (Alternaria solani; [4]): 20* %; Test F disease control rating (Septoria nodorum; [4]): 0* %; Test G disease control rating (Septoria tritici; [4]): 0* %; Test I disease control rating [1, 4]: 0* %; Test J disease control rating [2, 4]: 0* %"
COc1cc(F)c(-c2c(Cl)nc(Br)n2-c2ccc(C)cc2)c(F)c1 [compound 148],,,,,,,"Test C disease control rating (Botrytis cinerea; 200 ppm, 0 = no control): 99%; Test D disease control rating (Alternaria solani; 200 ppm, 0 = no control): 100%; Test F disease control rating (Septoria nodorum; 200 ppm, 0 = no control): 99%; Test G disease control rating (Septoria tritici; 200 ppm, 0 = no control): 100%; Test I disease control rating ([1]; 200 ppm, 0 = no control): 100%; Test J disease control rating ([2]; 200 ppm, 0 = no control): 100%"
Fc1ccc(-n2c(Cl)nc(Cl)c2-c2ccc(F)cc2Cl)cc1 [compound 183],,,,,,,"Test C disease control rating (Botrytis cinerea; [4]): 99* %; Test D disease control rating (Alternaria solani; [4]): 91* %; Test F disease control rating (Septoria nodorum; [4]): 0* %; Test G disease control rating (Septoria tritici; [4]): 85* %; Test I disease control rating [1, 4]: 66* %; Test J disease control rating [2, 4]: 48* %"
Cc1ccc(-n2cnc(Cl)c2-c2c(F)ccc(F)c2Cl)cc1 [compound 177],,,,,,,"Test C disease control rating (Botrytis cinerea; 200 ppm, 0 = no control): 88%; Test D disease control rating (Alternaria solani; 200 ppm, 0 = no control): 0%; Test F disease control rating (Septoria nodorum; 200 ppm, 0 = no control): 0%; Test G disease control rating (Septoria tritici; 200 ppm, 0 = no control): 79%; Test I disease control rating ([1]; 200 ppm, 0 = no control): 99%; Test J disease control rating ([2]; 200 ppm, 0 = no control): 99%"
Cc1ccc(-n2c(C)nc(Cl)c2-c2c(F)cccc2F)cc1 [compound 82],90,100,100,91,99,100,
Fc1ccc(SCCl)c(F)c1-c1c(Cl)ncn1-c1ccc(Cl)cc1 [compound 232],,,,,,,"Test C disease control rating (Botrytis cinerea; 200 ppm, 0 = no control): 0%; Test D disease control rating (Alternaria solani; 200 ppm, 0 = no control): 0%; Test F disease control rating (Septoria nodorum; 200 ppm, 0 = no control): 0%; Test G disease control rating (Septoria tritici; 200 ppm, 0 = no control): 95%; Test I disease control rating ([1]; 200 ppm, 0 = no control): 9%; Test J disease control rating ([2]; 200 ppm, 0 = no control): 0%"
"N#Cc1nc(Cl)c(-c2c(F)ccc(F)c2F)n1-c1ccc(Cl)cc1 [Compound 57, 4-chloro-1-(4-chlorophenyl)-5-(2,3,6-trifluorophenyl)-1H-imidazole-2-carbonitrile]",,,,,,,"pest or weed control at 200 ppm (Botrytis cinerea; Botrytis cinerea, 120 h, 200 ppm, 0 = no control relative to controls): 84%; pest or weed control at 200 ppm (Alternaria solani; Alternaria solani, 168 h, 200 ppm, 0 = no control relative to controls): 99%; pest or weed control at 200 ppm (Septoria nodorum; Parastagonospora nodorum, 264 h, 200 ppm, 0 = no control relative to controls): 0%; pest or weed control at 200 ppm (Septoria tritici; Zymoseptoria tritici, 504 h, 200 ppm, 0 = no control relative to controls): 87%; pest or weed control at 200 ppm ([1]; Puccinia recondita, 168 h, 200 ppm, 0 = no control relative to controls): 96%; pest or weed control at 200 ppm ([2]; Blumeria graminis, 168 h, 200 ppm, 0 = no control relative to controls): 100%"
COc1cc(F)c(-c2c(Cl)ncn2-c2ccc(C)cc2)c(F)c1 [compound 138],98,100,92,99,100,100,
COc1cc(F)c(-c2c(Cl)nc(Cl)n2-c2ccc(F)c(F)c2)c(F)c1 [compound 454],77,100,33,93,100,100,
Fc1ccc(-c2c(Cl)nc(Cl)n2-c2ccc(Cl)c(F)c2)c(Cl)c1 [compound 229],,,,,,,"Test C disease control rating (Botrytis cinerea; 200 ppm, 0 = no control): 98%; Test D disease control rating (Alternaria solani; 200 ppm, 0 = no control): 99%; Test F disease control rating (Septoria nodorum; 200 ppm, 0 = no control): 0%; Test G disease control rating (Septoria tritici; 200 ppm, 0 = no control): 98%; Test I disease control rating ([1]; 200 ppm, 0 = no control): 89%; Test J disease control rating ([2]; 200 ppm, 0 = no control): 91%"
COc1ccc(-c2c(Cl)nc(Br)n2-c2ccc(Cl)cc2)c(F)c1 [compound 110],94,99,100,95,97,96,
COc1ccc(F)c(-c2c(Cl)ncn2-c2ccc(Cl)cc2)c1F [compound 112],99,100,89,98,99,99,
Fc1ccc(F)c(-c2c(Cl)nc(Cl)n2-c2ccc(Cl)c(Cl)c2)c1F [compound 234],,,,,,,"Test C disease control rating (Botrytis cinerea; 200 ppm, 0 = no control): 95%; Test D disease control rating (Alternaria solani; 200 ppm, 0 = no control): 99%; Test F disease control rating (Septoria nodorum; 200 ppm, 0 = no control): 0%; Test G disease control rating (Septoria tritici; 200 ppm, 0 = no control): 98%; Test I disease control rating ([1]; 200 ppm, 0 = no control): 55%; Test J disease control rating ([2]; 200 ppm, 0 = no control): 98%"
COc1cc(Cl)cc(F)c1-c1c(Cl)ncn1-c1ccc(Cl)cc1 [compound 133],0,0,0,0,0,0,
Fc1ccc(Cl)c(F)c1-c1c(Cl)nc(Br)n1-c1ccc(Cl)cc1 [compound 100],97,93,99,97,98,99,
